The values below come from doi:10.1101/2025.07.02.662867v1 (bioRxiv, 2025).

For data set [1] the following is noted: typical dose of 0.5 to 1 mg; cited from earlier work.
The nature of data set [2]: 24-hour IV pharmacokinetic study in T2D rat model. Further details: species or system STZ/NA diabetic). Particulars: male, Sprague Dawley, in vivo.
Data set [3] deals with type 2-like diabetic male rats. Description: Blood glucose and body weight over 6 weeks in diabetic rats. The data set is classed as in vivo, rat (male Sprague Dawley, STZ/NA diabetic). Particulars: hydrogel vs daily bolus.

In the case of `CC[C@H](C)[C@H](NC(=O)[C@H](Cc1ccccc1)NC(=O)[C@H](CCC(=O)O)NC(=O)[C@H](CCCCNC(=O)COCCOCCNC(=O)COCCOCCNC(=O)CC[C@H](NC(=O)CCCCCCCCCCCCCCCCC(=O)O)C(=O)O)NC(=O)[C@H](C)NC(=O)[C@H](C)NC(=O)[C@H](CCC(N)=O)NC(=O)CNC(=O)[C@H](CCC(=O)O)NC(=O)[C@H](CC(C)C)NC(=O)[C@H](Cc1ccc(O)cc1)NC(=O)[C@H](CO)NC(=O)[C@H](CO)NC(=O)[C@@H](NC(=O)[C@H](CC(=O)O)NC(=O)[C@H](CO)NC(=O)[C@@H](NC(=O)[C@H](Cc1ccccc1)NC(=O)[C@@H](NC(=O)CNC(=O)[C@H](CCC(=O)O)NC(=O)C(C)(C)NC(=O)[C@@H](N)Cc1cnc[nH]1)[C@@H](C)O)[C@@H](C)O)C(C)C)C(=O)N[C@@H](C)C(=O)N[C@@H](Cc1c[nH]c2ccccc12)C(=O)N[C@@H](CC(C)C)C(=O)N[C@H](C(=O)N[C@@H](CCCNC(=N)N)C(=O)NCC(=O)N[C@@H](CCCNC(=N)N)C(=O)NCC(=O)O)C(C)C` [Sema, semaglutide], in data set [1], the half-life in humans was 170 h.
Usually half-life stands for the time needed for the level to fall by half in the phase considered. A high value points to slow decline. `CC[C@H](C)[C@H](NC(=O)[C@H](CC(C)C)NC(=O)[C@H](Cc1c[nH]c2ccccc12)NC(=O)[C@H](CCC(N)=O)NC(=O)[C@@H](NC(=O)[C@H](Cc1ccccc1)NC(=O)[C@H](C)NC(=O)[C@H](CCCCNC(=O)COCCOCCNC(=O)COCCOCCNC(=O)CC[C@H](NC(=O)CCCCCCCCCCCCCCCCCCC(=O)O)C(=O)O)NC(=O)[C@H](CCC(N)=O)NC(=O)[C@H](C)NC(=O)[C@@H](NC(=O)[C@H](CCCCN)NC(=O)[C@H](CC(=O)O)NC(=O)[C@H](CC(C)C)NC(=O)C(C)(C)NC(=O)[C@@H](NC(=O)[C@H](CO)NC(=O)[C@H](Cc1ccc(O)cc1)NC(=O)[C@H](CC(=O)O)NC(=O)[C@H](CO)NC(=O)[C@@H](NC(=O)[C@H](Cc1ccccc1)NC(=O)[C@@H](NC(=O)CNC(=O)[C@H](CCC(=O)O)NC(=O)C(C)(C)NC(=O)[C@@H](N)Cc1ccc(O)cc1)[C@@H](C)O)[C@@H](C)O)[C@@H](C)CC)[C@@H](C)CC)C(C)C)C(=O)N[C@@H](C)C(=O)NCC(=O)NCC(=O)N1CCC[C@H]1C(=O)N[C@@H](CO)C(=O)N[C@@H](CO)C(=O)NCC(=O)N[C@@H](C)C(=O)N1CCC[C@H]1C(=O)N1CCC[C@H]1C(=O)N1CCC[C@H]1C(=O)N[C@@H](CO)C(N)=O` [TZP, tirzepatide] had a half-life in data set [2] of 3.87 ± 0.63 h. For the same compound, the body weight outcome in data set [3] is listed as “noticeable weight loss in some animals”.
